As usually defined, the amount remaining is what is left of the initial amount, in per cent.

Where a SMILES comes first, the peptide text is derived from it. Bridges are numbered along the chain shown (N, C = ends). Bounds are passed on as bounds.

The record followed here is paper PMC8648872, “A host-directed macrocyclic peptide therapeutic for MDR gram negative bacterial infections” (Scientific Reports, 2021).

The subject of one data set is E. coli BAA-2340. As to the kind of experiment: CRE E. coli BAA-2340 septicemia, survival. The settings on record: KPC+ E. coli BAA-2340 i.p., saline controls 10%. The class given is in vivo, BALB/c mice. The method, then:
(§1) BALB/c mice (Jackson Laboratories) 8–10 weeks of age were acclimated (3–5 to a cage for at least 5 days prior to infection) in a thermostatically controlled room with 12 h light/dark cycle. Cryopreserved K. pneumoniae cells were thawed and adjusted to a density of 6–10 × 10^8 CFU/ml, confirmed by plating on trypticase soy agar (TSA) plates. E. coli BAA-2340 was grown to log-phase in trypticase soy broth, pelleted, washed with PBS, and resuspended in PBS at 0.5–1 × 10^9 CFU/ml. Mice were infected by i.p. injection of 2–5 × 10^8 CFU of Kp-1705 or 3–6 × 10^7 CFU of E. coli BAA-2340 using a 28 g needle in a volume of 0.5 ml. Post-infection, mice were observed three times a day for at least 4 days and then daily for 28 days. Mice were euthanized when they became moribund. All experiments used both male and female mice and were repeated at least twice.

The test system of data set [1] is Kp-1705. As to the kind of experiment: Bacterial burden in Kp-1705 infected mice. Format: in vivo, BALB/c mice. The settings on record: 1.25 mg/kg i.p. 1 h p.i. The method, then:
as §1
Blood, peritoneal lavage fluid, and spleen homogenates were obtained from mice following by CO2 euthanasia. Citrate-anti-coagulated blood was collected by aseptic cardiac puncture. Peritoneal lavage was performed by injecting 3 ml of PBS into the peritoneal cavity, massaging the abdomen, and then collecting fluid aseptically through a minor incision in the abdominal wall. Spleen was surgically removed and homogenized in sterile PBS using Polytron PT10-35 homogenizer. Samples were serially diluted and plated in triplicate on TSA plates, incubated overnight at 37 °C and colonies counted.

A further data set relates to plasma cytokines. As to the kind of experiment: Plasma cytokines in uninfected (sham infected) mice. The class given is in vivo, BALB/c mice. The settings on record: single i.p. 1.25 mg/kg. Here is the method:
EDTA-anticoagulated blood was collected aseptically by terminal cardiac puncture and analyzed for complete blood cell count using an Element HT5 hematology analyzer (Heska). Blood plasma and clarified peritoneal lavage were prepared by two-step centrifugation described previously. Plasma cytokine levels were quantified using a mouse-specific MILLIPLEX MAP kit (Millipore Cat# MCYTMAG-70K) as described.
Supplemental Fig. 3. Transient stimulation of cytokines by MTD12813. Sham infected mice were injected i.p with PBS and treated i.p. 1 h later with 1.25 mg/kg MTD12813 (M) or saline (S). Four or 24 h post sham infection, animals were euthanized and plasma samples quantified by multiplex cytokine analysis. P values calculated using ANOVA with Uncorrected Fisher’s LSD comparing saline and […]

A short description of data set [2]: Peptide stability in human EDTA plasma. The class given is in vitro ADME. The settings on record: 90% (vol/vol) human EDTA-plasma, 37 °C, C18 RP-UPLC with PDA detector, read-out: peptide remaining intact. The method, then:
MTD12813 (final concentration of 100 µg/ml) was added to either 90% human EDTA plasma or 90% human serum and incubated at 37 °C for 48 h. Samples were processed by addition of 10% HOAc and 5% ACN (final concentrations) at time 0 and 48 h, and MTD12813 was quantified by C18 RP-HLPC on an Acquity H-Class UPLC with an analytical PDA detector using Empower 3 software (Waters). All samples were performed with technical replicates and analyzed by UPLC in duplicate and the experiment repeated once. […] A time 0 h sample was collected, and the remaining suspension incubated at 37 °C for 24 h. Samples were processed by addition of 5% formic acid/5% acetonitrile, vortexed, and clarified at 22,000×g for 10 min. Supernatant MTD12813 was then quantified by LC–MS/MS as described in PK section above. All samples were performed with technical replicates and analyzed by LC–MS/MS in duplicate.

Data set [3] deals with Kp-1705. As to the kind of experiment: Viability and replication fitness of Kp-1705 at sub-MIC peptide. The class given is cell-based, K. pneumoniae. The settings on record: Kp-1705 (1 x 10^9 CFU/ml), 1 h with 1.25 µg/ml MTD12813; CFU on TSA, growth at A620. Here is the method: Cryopreserved Kp-1705 was suspended in PBS to a density of ca. 1 × 10^9 CFU/ml, and incubated with saline or 1.25 µg/ml MTD12813 at room temperature for 1 h. Mice (n = 26) were then infected i.p. with 500 µl of saline- or MTD12813- pretreated Kp-1705, and a third cohort (n = 12) received 500 µl i.p. of 1.25 µg/ml MTD12813 immediately following infection with saline treated Kp-1705. Five mice from each cohort were euthanized 4 h p.i., and peritoneal lavage was collected for bacterial burden determination and cytospin preparation. In vitro antibacterial activity of MTD12813 (1.25 μg/ml) -treated cells (1 h; 37 °C) was determined by plating saline or peptide treated cells on TSA plates. Growth kinetics of saline and MTD12813-treated cells was determined by diluting samples from the 1 h incubation mixtures 1:40 into TSB and monitoring growth (620 nm) for 5.5 h at 37 °C. Antibacterial activity of MTD12813 in PF was determined by i.p. injection of naïve male BALB/c mice (n = 5 per group) with 1.25 mg/kg of MTD12813 or saline i.p. (10 ml/kg). […] Peritoneal fluid was clarified by centrifugation at 1200×g and an aliquot used to quantify MTD12813 by LC–MS/MS, as described above. Antimicrobial activity was determined by incubating PF (9:1 vol/vol) with Kp-1705 at a final density of 3 × 10^7 CFU/ml. […]
replication fitness of Kp-1705. […] (a) Bacterial viability was quantified as CFU on TSA plates. […]

As for `CC[C@H](C)[C@@H]1NC(=O)[C@@H]2CSSC[C@H](NC(=O)[C@H]([C@@H](C)CC)NC(=O)[C@@H]3CSSC[C@H](NC1=O)C(=O)N[C@@H](C(C)C)C(=O)NCC(=O)N[C@@H](CCCNC(=N)N)C(=O)NCC(=O)N3)C(=O)N[C@@H](C(C)C)C(=O)N[C@@H](CCCNC(=N)N)C(=O)N[C@@H](CCCNC(=N)N)C(=O)N[C@@H](CCCNC(=N)N)C(=O)N2` [MTD12813] (cyclo(CICVGRGCICVRRR); disulfide 1-10, 3-8), the “survival ≥ 28 days” value in the data set with E. coli BAA-2340 (single i.p. injection 1.25 mg/kg 1 h p.i.) was 100%. The “survival ≥ 28 days” value in the data set on E. coli BAA-2340 (single i.p. injection 5 mg/kg 1 h p.i.) is 100%. In addition, in the data set on Kp-1705 [1] (4 h p.i.), the “reduction of viable bacteria versus saline, PLF” value is 99.5%; the “reduction of viable bacteria versus saline, blood” value was 79.1%; the “reduction of viable bacteria versus saline, spleen” value is listed as 70.4%. For the same compound, in the data set with Kp-1705 [1] (24 h), the “reduction of bacterial burden, PLF” value was 99.8%; the “reduction of bacterial burden, blood” value was determined as 93.8%; the “reduction of bacterial burden, spleen homogenates” value is listed as 94.4%. In the data set on plasma cytokines (4 h collection point), the “plasma IL-5, IL-6 and CXCL1 versus vehicle” value was “significantly elevated”. Besides, the “plasma IL-5, IL-6 and CXCL1” value in the data set on plasma cytokines (24 h) was “returned to baseline”. In addition, the fraction remaining at 48 h, 100 µg/ml in data set [2] is > 95%. Moreover, in the data set with Kp-1705 [3], the “bacterial viability and replication fitness” value is “no effect on bacterial viability or replication fitness”.
